Article PMC6905430 (Biochemistry, 2019)

Tests used:
[1] = biological target: H49A DXP synthase (Escherichia coli, UniProt P77488, H49A); type: biochemical, E. coli
[2] = biological target: H299A DXP synthase (Escherichia coli, UniProt P77488, H299A); type: biochemical, E. coli; details: H299A vs wild type
[3] = biological target: H299N DXP synthase (Escherichia coli, UniProt P77488, H299N); type: biochemical, E. coli
[4] = biological target: H49N DXP synthase (Escherichia coli, UniProt P77488, H49N); type: biochemical, E. coli; details: read-out: Km^app,pyruvate; anaerobic; pyruvate varied, D-GAP 500 μM; n = 3
[5] = biological target: wild type DXP synthase (Escherichia coli, UniProt P77488); test: Anaerobic limited trypsinolysis in the presence of MAP; set-up: species or system E. coli; details: preincubation with MAP 65 μM, 45 min, 6 °C; trypsin 4.5 ng/μL; up to 150 min
[6] = read-out: Km^app,pyruvate, anaerobic, pyruvate varied, D-GAP 500 μM, n = 3

Row | SMILES | decrease in kcat/Km^pyruvate compared to wild type DXP synthase ([1]; H49A vs wild type) [fold] | Km [1, 6] [µM] | decrease in kcat/Km^pyruvate relative to wild type DXP synthase [2] [fold] | decrease in kcat/Km^pyruvate relative to wild type DXP synthase ([3]; H299N vs wild type) [fold] | Km [3, 6] [µM] | Km [4] [µM] | effect of MAP on trypsinolysis profile [5]
1 | CC(=O)C(=O)O [pyruvate] | 76 | 1070 | 846 | 185 | 1080 | 1610 | 
2 | COP(=O)(O)C(C)=O [MAP, methylacetylphosphonate] |  |  |  |  |  |  | K313 is protected from typsinolysis
